Data: US8163803B2 (Fundação Oswaldo Cruz—FIOCRUZ, priority 2004, dated 2012)

Legend:
eosinophils of rats = experiment: Cytosolic calcium increase in eosinophils stimulated with PAF (Fura 2-AM); format: cell-based, Wistar rats; conditions: PAF (1 μM); for inhibition of citosolic calcium increase compared with lidocaine: 5 min pre-incubation
Method: Female and male Wistar rats were used, weighing between 200 and 250 g, they came from Oswaldo Cruz Foundation's Center of Laboratory Animal Raising. The procedures involving the animals were examined and approved by Oswaldo Cruz Foundation's Committee of Animal Ethics (CEUA-FIOCRUZ, Licenca no. 00085-02).
The animals were sacrificed in a chamber of CO2 and a population of cells containing 10-15% eosinophils were recovered from the peritoneal cavity after washing the same with 20 ml Hanks, as previously described. After centrifugation, the cellular sediment was resuspended and the leukocytes subtypes (mononuclear cells, eosinophils and mast cells) separated in a discontinuous gradient of Percoll (double layer) centrifugated at 400×g for 25 minutes. The eosinophils (85-95% purity) were recovered in the interface 56%-72%, washed in RPMi medium to eliminate residue of Percoll and related. The total cells isolated was obtained after the dilution of a sample in Türk liquid and couting in Neubauer chamber with the assistance of direct-light microscopy. The populational purity analysis was done by direct-light microscopy in cytocentrifugates dyed with May-Grunwald-Giemsa.
The eosinophils (1×10^7/ml) were loaded with 3 μM Fura 2-AM as described, washed in PBS enriched with 0.1% BSA, and resuspended in a final concentration of 0.5×10^6/ml PBS containing 0.25% BSA, HEPES and glucose ([…]). Alíquotas de células (1.5 ml) were dispensed in quartz cuvettes and balanced with 1 mM calcium at 37° C. for 10 minutes before being used. Fluorescence changes were measured by fluorometer Shimatzu (model RF 1501) as previously described. The calculus of free calcium was derived from the fluorescence spectrum (wave length of excitation, 340 and 380 nm; emission 510 nm) according to the method established. The values were represented as percentage of inhibition in relation to group control. […]
The values were expressed as an average± standard error of the mean and statistically analyzed through the test of variance analysis (ANOVA), followed by the Newman-Keuls-Student test.

[1] = system: isolated ileum of an experimental animal; experiment: Anaphylactic contraction of isolated ileum induced by antigen (ovoalbumin); conditions: antigen (10 μg/ml), average ±SEM, at least 3 animals; read-out: Stimulation with antigen IC50
Method: Female and male experimental animals were used, weighing between 300 and 400 g, they came from Oswaldo Cruz Foundation's Center of Laboratory Animal Raising. The procedures involving the animals were examined and approved by Oswaldo Cruz Foundation's Committee of Animal Ethics (CEUA-FIOCRUZ, Licenca no. 00085-02). The animals were sensitized through a subcutanous injection with a mixture of 50 μg ovoalbumin and 5 mg Al(OH)3. From fourteen to thirty days after the sensitization, the experimental, animal was sacrificed in a chamber of carbonic gas to have its abdomen open and the location of the ileocecal valve. At this point, the intestine was sectioned and a segment of the small intestine, about 20 cm (equivalent to the ileum) was carefully removed and internally washed with a warmed solution (37° C.) of Tyrode (Composition in mM) (NaCl 137; KCl 2.7; NaH2PO4 0.42; NaHCO3 11.9; MgCl2 0.5; CaCl2 1.8; glucose 5.6) to remove the fecal content. […].
About 3-cm ileum fragments were vertically mounted in 10 ml glass cuvettes, immersed in Tyrode's solution at 37° C., aerated with carbogen (O2, 95% and CO2, 5%) and supplemented with atropine according to the standard procedure. The tissue had one of its ends tied to a rod while the other end was coupled with a transductor after the transference from the rod to the cuvette. The contractions were isotonically registered (basal tension of 1 g) with the support of a transductor of displacement-force connected to a computerized system to capture data. After a 30 minute period of balance, each segment was repeatedly stimulated by histamine (1 μM) until response stabilization. To induce anaphylatic contraction, ileum segments from sensitized experimental animals were stimulated by ovoalbumin (10 μg/ml). […]. The results were presented as a percentage of inhibition calculated in relation to the contractive effect obtained from stimulated and non-treated preparations.
Concentration-response data were adjusted through non-linear regression curves with the assistence of a graphics software (GraphPad Prism, USA). The concentration of an antagonist needed to inhibit the contractive response to inhibit the contractive response after stimulation by histamine or antigen at 50% (IC50) was used to compare the anti-spasmodic potency. The values expressed as an average ± standard error of the mean and statistically analysed through the test of analysis variance (ANOVA), followed by the Newman-Keuls-Student test.

[2] = system: cutaneous sites of the dorsal region of adult Wistar rats; experiment: Local anesthetic activity, intradermal injection in dorsal skin, response to mechanical stimulation; format: in vivo; conditions: for time of anesthesia compared with lidocaine: doses from 0.5 to 4 μMol/site
Method: Female and male Wistar rats, weighing between 200 and 250 g, they came from Oswaldo Cruz Foundation's Center of Laboratory Animal Raising were used. The procedures involving the animals were examined and approved by Oswaldo Cruz Foundation's Committee of Animal Ethics (CEUA-FIOCRUZ, License number 00085-02). After brief anesthesia by exposure to the atmosphere enriched with […] animals were trichotomized dorsal region, where the […] injections with substances for test were performed; doses varied from 0.5 to 4 μMol/site, and vehicule (NaCl 0.9%) (negative control), the final volume was 50 μl. Each animal took six injections and four animals were used for each tested substance. The application points were mechanically estimulated with a tweezer in order to evaluate the integrity of sensitiveness. The site was considered not to be anesthesized whenever after the mechanical stimulation it was observed a local retraction of the skin, according to what had been previously reported. The evaluations began 10 minutes after intradermal injections had been taken, which continued every five minutes until it was obtained the cutaneous retraction response. The values (average±standard error of the mean, SEM) were expressed in terms of “Time of Anesthesia” in minutes.

| SMILES | inhibition of citosolic calcium increase compared with lidocaine (eosinophils of rats) | IC50 [1] [µM] | time of anesthesia compared with lidocaine [2] | blocking of the increase of citosolic calcium (eosinophils of rats; highest concentration (1 mM), Average±SEM, n=8) [%] | Time of Anesthesia ([2]; 4 μMol/site intradermal, n=4, average±SEM) [min] |
| --- | --- | --- | --- | --- | --- |
| CCN(CC)CC(=O)Nc1cccc(C)c1C [JM23-1, 2-dyethylamine-2′,3′-acetoxylidide] | equipotent to lidocaine | 330 | significantly inferior | – | – |
| CCN(CC)CC(=O)Nc1ccc(C)cc1C [JM24-1, 2-dyethylamine-2′,4′-acetoxylidide] | so effective as lidocaine and JM23-1 in higher concentrations | 190 ± 40 | significantly inferior | – | – |
| CCN(CC)CC(=O)Nc1c(C)cccc1C [Lidocaine, 1-(2-(dyethylamine)N-dymethylfenyl)-acetamide, reference compound] | – | 1430 ± 90 | – | 47±2 | 168 ± 3 |
